# Test results published in patent US7964556B1, “Antimicrobial peptides and use thereof” (Toagosei Co., Ltd, priority 2004, dated 2011).
# Like-named read-outs stand apart in the source and are kept apart here. Where a SMILES comes first, the peptide text is derived from it.
# Assays:
# Format in all cases: cell-based
# [1] = tested on: sheep's erythrocytes
# Procedure: A test on the hemolytic activity of 2 kinds of synthesized peptides (sample 9 and sample 10) in example 1 was performed and served as indicator of the effects of these peptides on animal cell (erythrocyte). The hemolytic activity test in the present example was performed as follows. Specifically, sample peptides were dissolved in PBS (pH7.4), and thereafter 10 stages of twice diluted strains (sample solutions) with peptide concentration of 400, 200, 100, 50, 25, 12.5, 6.25, 3.13, 1.56 and 0.78 μM were prepared. Here, PBS was used as a control of 0% hemolysis, and PBS containing 0.1% of triton X-100 was used as a control of 100% hemolysis. Erythrocyte of fiber-free sheep's blood was then added to these sample solutions such that the volume ratio (v/v) was 1% of these sample solutions. After adding the above-described red blood cells, the sample solutions were incubated for 1 hour at 37° C., and thereafter the hemolysis was ceased with cold water. Next, centrifugal separation at 3000 rpm was performed for […] at 4° C.
# After centrifugal separation, each supernatant was fed to the 96-well microplate, and absorbency under 540 nm wavelength was determined. The hemolytic rate (%) was then calculated by the following formula based on the results determined: {(Aexp−A0)/A100}×100. […]
# [2] = tested on: Escherichia coli
# Procedure: (§1) Regarding the antimicrobial peptide in samples 1 to 14 and the comparative sample 1, the antimicrobial activities (minimum inhibitory concentration: MIC) with respect to gram-negative bacteria (Escherichia coli) and gram-positive bacteria (Staphylococcus aureus) were determined, as described below, by a liquid medium dilution technique using a 96-well microplate. First, a drug (synthesized peptide) solution having a concentration of 40 times of the highest test concentration was prepared using sterile distilled water, and thereafter liquid-bouillon mediums (“NUTRIENT BROTH Dehydrated” manufactured by DIFCO) having peptide concentrations of 200, 100, 50, 25, 12.5, 6.25, 3.13, 1.56 and 0.78 μM were produced respectively. The produced liquid-bouillon mediums including the peptide of each concentration were then fed to the 96-well microplate at 100 μL a time.
# (§2) At the same time, test bacteria cultured for 18 hours at 37° C. on an agar plate (“Muller Hinton Agar” manufactured by DIFCO) were gathered by scratching with a loop, and then suspended in a sterilized physiological saline. Bacterial suspension 5 μL prepared at an equivalent of 2×10^7 cells/mL was respectively inoculated (number of bacteria to be tested: approximately 1×10^6 cells/mL) onto the above-described liquid-bouillon mediums including the peptide of each concentration and fed to each well of the above-described microplate. After inoculation, the microplate was then incubated in an incubator at 37° C., and the presence of bacteria was evaluated based on the turbidity 24 hours later. The minimum drug concentration (peptide concentration), in which an increased in turbidity caused by bacteria was not detected at the time of measurement, was defined as MIC (minimum inhibitory concentration) (unit: μM) in the present embodiment.
# [3] = tested on: Staphylococcus aureus; conditions: for antimicrobial activities against gram-positive bacteria (S. aureus), in words: summary of Table 2
# Procedure: as §1, §2
# [4] = tested on: S. aureus
# Procedure: Next, the antimicrobial activities (MIC) against gram-positive bacteria (S. aureus) in the presence of serum and high concentration of cation were tested with the same method as Example 2. However, only the above-described sample 9 was used as the test peptide. Specifically, a drug (synthesized peptide of sample 9) solution having a concentration of 40 times of the highest test concentration was prepared using sterile distilled water. Thereafter, MHB mediums (“Mueller Hinton Broth” manufactured by DIFCO) including high concentration of cation with peptide concentrations of 50, 25, 12.5, 6.25, 3.13, 1.56 and 0.78 μM were produced respectively. The cation included was prepared as follows: dissolving 3.68 g of CaCl2.2H2O in 100 mL of purified water (10 mg.Ca^2+/mL), and thereafter adding 500 μL thereof into 100 mL of Mueller Hinton Broth; and dissolving 8.36 g of MgCl2.6H2O in 100 mL of purified water (10 mg.Mg^2+/mL), and thereafter adding 250 μL thereof into 100 mL of Mueller Hinton Broth.
# Mediums (hereinafter “MHB serum mediums including high concentration of cation”) were further prepared by adding horse serum (mechanically sterilized Nippon Biotest Laboratories inc. product), which made up of 10% volume ratio of the entire medium, into the MHB mediums including high concentration of cation. The MHB serum mediums including high concentration of cation had peptide concentrations of 50, 25, 12.5, 6.25, 3.13, 1.56 and 0.78 μM.
# Next, the above-described MHB mediums including high concentration of cation and having peptide of each concentration, and the above-described MHB serum mediums including high concentration of cation and having peptide of each concentration were fed to the 96-well microplate at 100 μL a time, and the MIC were determined using the same method as example 2. As comparison, commercially available MHB mediums having peptide concentration of 50, 25, 12.5, 6.25, 3.13, 1.56 and 0.78 μM were used.
# [5] = liquid-bouillon medium (Nutrient Broth), 37° C., turbidity after 24 hours
smiles,measurement,setting,value
"CC[C@H](C)[C@H](NC(=O)[C@H](CCC(N)=O)NC(=O)[C@@H](NC(=O)[C@H](CCCCN)NC(=O)[C@@H](NC(=O)[C@H](CCCCN)NC(=O)[C@H](CCCNC(=N)N)NC(=O)[C@H](CCCCN)NC(=O)[C@H](CCCCN)NC(=O)[C@H](CCCCN)NC(=O)[C@@H](N)CCCNC(=N)N)C(C)C)C(C)C)C(=O)N[C@H](C(=O)N[C@@H](CC(N)=O)C(=O)N[C@@H](CCCCN)C(=O)N[C@@H](CCCCN)C(N)=O)[C@@H](C)CC [Sample 9, RKKKRKVKVQIINKK] (H-RKKKRKVKVQIINKK-NH2)","hemolytic activities, in words",[1],significantly low
same,Antimicrobial Activities (MIC) E. coli,[2]; 24 h,3.13 µM
same,Antimicrobial Activities (MIC) S. aureus,[3]; 24 h,0.78 µM
same,"antimicrobial activities against gram-positive bacteria (S. aureus), in words",[3],particularly high antimicrobial activities
same,"Antimicrobial Activities (MIC) against S. aureus, MHB",[4],3.13 µM
same,"Antimicrobial Activities (MIC) against S. aureus, MHB + Cation",[4],3.13 µM
same,"Antimicrobial Activities (MIC) against S. aureus, MHB + Cation + Horse Serum",[4],3.13 µM
"CC(C)[C@H](NC(=O)[C@H](C)NC(=O)[C@@H](NC(=O)[C@H](CCCCN)NC(=O)[C@H](CCCCN)NC(=O)[C@@H](NC(=O)[C@H](CCCCN)NC(=O)[C@H](CCCNC(=N)N)NC(=O)[C@H](CCCCN)NC(=O)[C@H](CCCCN)NC(=O)[C@H](CCCCN)NC(=O)[C@@H](N)CCCNC(=N)N)C(C)C)C(C)C)C(=O)N[C@H](C(=O)N[C@@H](CCCNC(=N)N)C(=O)N[C@H](C(N)=O)[C@@H](C)O)C(C)C [Sample 10, RKKKRKVKKVAVVRT] (H-RKKKRKVKKVAVVRT-NH2)","hemolytic activities, in words",[1],significantly low
same,Antimicrobial Activities (MIC) E. coli,[2]; 24 h,12.5 µM
same,Antimicrobial Activities (MIC) S. aureus,[3]; 24 h,3.13 µM
same,"antimicrobial activities against gram-positive bacteria (S. aureus), in words",[3],particularly high antimicrobial activities
"CC[C@H](C)[C@H](NC(=O)[C@H](CCC(N)=O)NC(=O)[C@@H](NC(=O)[C@H](CCCCN)NC(=O)[C@@H](NC(=O)[C@@H](NC(=O)[C@@H](NC(=O)[C@H](CCCNC(=N)N)NC(=O)[C@H](CCCCN)NC(=O)[C@H](CCCCN)NC(=O)[C@H](CCCNC(=N)N)NC(=O)[C@@H]1CCCN1C(=O)[C@@H]1CCCN1)[C@@H](C)O)C(C)C)C(C)C)C(C)C)C(=O)N[C@H](C(=O)N[C@@H](CC(N)=O)C(=O)N[C@@H](CCCCN)C(=O)N[C@@H](CCCCN)C(N)=O)[C@@H](C)CC [Sample 13, PPRKKRTVVKVQIINKK] (H-PPRKKRTVVKVQIINKK-NH2)",Antimicrobial Activities (MIC) E. coli,[2]; [5],3.13 µM
same,Antimicrobial Activities (MIC) S. aureus,[3]; [5],0.78 µM
same,"antimicrobial activities against gram-positive bacteria (S. aureus), in words",[3],particularly high antimicrobial activities
"CC[C@H](C)[C@H](NC(=O)[C@H](CCC(N)=O)NC(=O)[C@@H](NC(=O)[C@H](CCCCN)NC(=O)[C@H](Cc1ccc(O)cc1)NC(=O)[C@@H](NC(=O)[C@@H](NC(=O)[C@H](CCC(N)=O)NC(=O)[C@@H](N)C(C)C)[C@@H](C)CC)C(C)C)C(C)C)C(=O)N[C@H](C(=O)N[C@@H](Cc1ccc(O)cc1)C(=O)N[C@@H](CCCCN)C(N)=O)C(C)C [Sample 14, VQIVYKVQIVYK] (H-VQIVYKVQIVYK-NH2)",Antimicrobial Activities (MIC) E. coli,[2]; 24 h,50 µM
same,Antimicrobial Activities (MIC) S. aureus,[3]; 24 h,25 µM
same,"antimicrobial activities against gram-positive bacteria (S. aureus), in words",[3],particularly high antimicrobial activities
